Consider 9 molecules from patent EP3876933B1, “NEUTROPHIL INFLAMMATION INHIBITOR AND USES THEREOF” (Chang Gung University of Science and Technology, priority 2018, dated 2020).

Data set [1] relates to human neutrophils. The data set is described as follows: Superoxide anion (O2˙-) generation in fMLF/CB-activated human neutrophils (SOD-inhibitable ferricytochrome c reduction). The format is cell-based. The note with it: for IC50 / inhibition at 10 µM: Neutrophil; for inhibition at 10 µM / Superoxide Anion Inhibition %: at 10 µM concentration. On the procedure: (§1) Human neutrophils were obtained in lipopolysaccharide-free conditions by means of dextran sedimentation and Ficoll centrifugation.
O2˙^- production was determined based on the SOD-inhibitable reduction of ferricytochrome c. Briefly, neutrophils (6 × 10^5/mL) were treated with a candidate compound at 37 °C at various concentrations (0.001 to 10 µM) for 5 min after being supplementing with 0.5 mg/mL ferricytochrome c and 1 mM Ca^2+. Cells were then activated with fMLF (0.1 µM) for 10 min in the pre-process of cytochalasin B (CB, 1 µg/mL) for 3 min. Changes in absorbance with the reduction of ferricytochrome c at 550 nm were continuously monitored in a double-beam, six-cell positioner spectrophotometer with constant stirring (Hitachi U-3010, Tokyo, Japan). Calculations were based on the differences in the reactions with and without SOD (100 U ml^-1) divided by the extinction coefficient for the reduction of ferricytochrome c (ε = 21.1 mM^-1/10 mm).

Data set [2] concerns human neutrophils. In words: Elastase release in fMLF/CB-activated human neutrophils (Methoxysuccinyl-Ala-Ala-Pro-Val-p-nitroanilide substrate). It counts as cell-based. Conditions: Neutrophil; for inhibition at 10 µM: at 10 µM concentration. On the procedure: as §1
Methoxysuccinyl-Ala-Ala-Pro-Val-p-nitroanilide was employed as the elastase substrate for the determination of elastase release. Briefly, after supplementation with Methoxysuccinyl-Ala-Ala-Pro-Val-p-nitroanilide (100 µM), neutrophils (6 × 10^5/mL) were equilibrated at 37 °C for 2 min and incubated with a candidate compound at various concentrations for 5 min. Cells were then activated with fMLF (0.1 µM) for 10 min in the pre-process of CB (0.5 µg/mL) for 3 min, and changes in absorbance at 405 nm were continuously monitored to evaluate elastase release. Results are expressed as the percentage of elastase release in the drug-free control group, DMSO.

In data set [3] the test system is imiquimod-induced psoriasis. In words: Imiquimod-induced psoriasis-like skin inflammation in mice (phenotype, H&E, immunohistochemistry). The format is in vivo, BALB/c mice. Conditions: 20 mg/kg intraperitoneal, 30 min before 5% IMQ cream, every day for 7 days. On the procedure:
(§2) Male BALB/c mice aged 7-8 weeks were purchased from BioLASCO (Taipei, Taiwan) and maintained in a room with 12 hr light/dark cycles. Standard laboratory chow and water were available ad libitum. All animal experimental procedures were performed in accordance with guidelines and approved by the Institutional Animal Care and Use Committee of Chang Gung University.
(§3) Male BALB/c mice aged 7-8 weeks were used for the development of the imiquimod-induced psoriatic-like plaque model. The dorsal skin of the mice were shaved and received a daily topical dose of 62.5 mg of 5% imiquimod (IMQ) cream (Aldara, MEDA Pharma, Sweden) with or without a test compound (e.g., HKI-4971) treatment by intraperitoneal injection for 7 consecutive days.
Tissue samples were fixed in 10% neutral buffered formalin and embedding in paraffin blocks. Sections of the samples were prepared at 5 µm thickness and stained with hematoxylin and eosin (H&E). For immunohistochemistry staining, the sections were incubated with primary antibodies against Ly6g, MPO, and ki67 then the secondary antibody was applied for the detection of the primary antibody according to the manufacturer's instructions of the SuperPicture Polymer Detection Kit (Thermo Fisher, USA). Finally, the section slides were subsequently stained with DAB chromogen and counterstained with hematoxylin. […]

Data set [4] can be described thus: Liver and kidney function (blood ALT, AST, BUN, creatinine) in imiquimod-induced mice. Conditions: HKI-4971 20 mg/kg intraperitoneal, alone or in combination with IMQ; n=3. It counts as in vivo, BALB/c mice. On the procedure: as §3
In this example, the effect of HKI-4971 (or compound 13) on the development of psoriasis was investigated using the well-established psoriasis animal model, in which imiquimod (IMQ) was used to induce psoriasis-like skin inflammation. Briefly, BALB/c mice are pre-treated by intraperitoneal injection of HKI-4971 (20 mg/kg) for 30 min before 5% IMQ cream was topically administered onto the back of the mice every day for 7 days. Then, skin samples taken from these animals were subjected to microscopy examination and immunohistochemistry staining, while blood samples were subjected to analysis for liver and kidney functions. Results are depicted in FIGs 1 to 3.
Blood samples taken from IMQ- or IMQ+HKI-4971 treated animals were analyzed for the levels of alanine aminotransferase and aspartate transaminase, which were used as indicators for assessing liver function; and the levels of blood […] nitrogen (BUN) and creatinine (CRE), which were used as indicators for assessing the kidney function. […]

A further data set relates to LPS-induced ALI. In words: LPS-induced acute lung injury (ALI) in mice (lung MPO activity, H&E, immunohistochemistry). The format is in vivo, BALB/c mice. Conditions: 20 mg/Kg intravenous 1 hr before intratracheal LPS (2 mg/Kg), 5 hrs. On the procedure:
as §2
Mice were pre-treated with a candidate compound (e.g., HKI-4971), which was dissolved in 50 µl saline solution containing 10% DMSO and 20% Kolliphor EL (Sigma-Aldrich, USA), by intravenous injection. […]
Lung tissues were homogenized in PBS (50 Mm, pH 6.0) containing 0.5% (w/v) hexadecyltrimethylammonium bromide (HETAB) (Sigma-Aldrich, USA) by using the MagNA Lyser Instrument (Roche, Germany), and was further centrifuged at 12,000 ×g for 20 min at 4°C to remove the insoluble material. The peroxidase activity was measured as the oxidation of o-Dianisidine dihydrochloride (Sigma-Aldrich, USA). […] The absorption was determined spectrophotometrically at 405 nm. […]
In this example, the Gram-negative bacterial endotoxin LPS induced ALI in mice was employed to mimic ARDS in human, and the effect of HKI-4971 was evaluated. […]

[5] abbreviates: FMLP/CB-induced human neutrophils, mean ± S.E.M. (n = 3-5), read-out: Superoxide Anion IC50.
Where [6] appears, read: FMLP/CB-induced human neutrophils, mean ± S.E.M. (n = 3-5).
[7] abbreviates: FMLP/CB-induced human neutrophils, mean ± S.E.M. (n = 3-5), read-out: Elastase Release IC50.

The structures appear in SMILES notation.

On to `Cn1nc(N)c2c(Nc3ccc(O)cc3)nc3ccccc3c21` [Compound 13, 4-(4-Hydroxyanilino)-1-methyl-1H-pyrazolo[4,3-c]quinolin-3-amine], for which the IC50 is around 0.0037 µM in the data set with human neutrophils [1] (Homo sapiens, neutrophils in response to fMLF, Table 2, read-out: IC50 for suppressing the superoxide anion generation); 0.00369 ± 0.00174 µM with human neutrophils [1] (setting [5]); around 0.032 µM with human neutrophils [2] (Homo sapiens, neutrophils in response to fMLF, Table 2, read-out: IC50 for suppressing elastase release); 0.0321 ± 0.0174 µM in the data set on human neutrophils [2] (setting [7]). The inhibition at 10 µM amounted to 88.1 ± 1.19% in the data set on human neutrophils [1] (setting [6]) and 105 ± 2.53% in the data set with human neutrophils [2] (setting [6]). In addition, in data set [3], the “markers for cell proliferation (ki-67) and for neutrophils (Ly6g and MPO), immunostaining of skin samples” value is reported as “reduced”. Also, in data set [3], the “severity or progression of IMQ-induced psoriasis” value is reported as “reduce the severity or progression”. Moreover, the “functions of liver or kidney (alanine aminotransferase, aspartate transaminase, BUN, CRE in blood)” value in data set [4] is “did not result in significant damage”. For the same molecule, in the data set on LPS-induced ALI, the “LPS-induced neutrophil infiltration and lung injury (H&E and neutrophil markers in lung sections)” value is recorded as “significantly alleviated”. In addition, the “MPO activity in lung tissues” value in the data set on LPS-induced ALI (n=3) is listed as “suppressed”.

Consider `CC(=O)c1cccc(Nc2nc3ccccc3c3onc(N)c23)c1` [Compound 26, 4-(3-Acetoylanilino)isoxazolo[4,5-c]quinolin-3-amine], for which the IC50 in the data set with human neutrophils [1] (setting [5]) was 2.88 ± 0.27 µM; with human neutrophils [2] (setting [7]) it was above 10 µM. In addition, the inhibition at 10 µM is 76.2% with human neutrophils [1] (setting [6]) and -4.55 ± 5.83% in the data set with human neutrophils [2] (setting [6]).

For `CC(=O)c1ccc(Nc2nc3ccccc3c3onc(N)c23)cc1` [Compound 27, 4-(4-Acetoylanilino)isoxazolo[4,5-c]quinolin-3-amine], the IC50 with human neutrophils [1] (setting [5]) and in the data set with human neutrophils [2] (setting [7]) was above 10 µM each time. The inhibition at 10 µM is 37.4 ± 5.43% with human neutrophils [1] (setting [6]) and -9.53 ± 5.26% in the data set with human neutrophils [2] (setting [6]).

As for `Nc1noc2c1c(Nc1ccccc1O)nc1ccccc12` [Compound 28, 4-(2-Hydroxyanilino)isoxazolo[4,5-c]quinolin-3-amine], the IC50 in the data set with human neutrophils [1] (setting [5]) turned out to be 4.54 ± 1.18 µM; in the data set with human neutrophils [2] (setting [7]), 5.77 ± 1.14 µM. The results for the inhibition at 10 µM in the data set with human neutrophils [1] (setting [6]) and with human neutrophils [2] (setting [6]) were 91 ± 1.69% and 77.6 ± 4.52%, respectively.

Consider `Nc1noc2c1c(Nc1ccc(O)cc1)nc1ccccc12` [Compound 29, 4-(4-Hydroxyanilino)isoxazolo[4,5-c]quinolin-3-amine], for which the IC50 was 0.65 ± 0.2 µM in the data set with human neutrophils [1] (setting [5]) and above 10 µM with human neutrophils [2] (setting [7]). Moreover, the inhibition at 10 µM was found to be 91.1 ± 0.38% with human neutrophils [1] (setting [6]) and 29.9 ± 6.66% in the data set with human neutrophils [2] (setting [6]).

As for `Nc1noc2c1c(Nc1ccc(C(F)(F)F)cc1)nc1ccccc12` [Compound 30, 4-(4-Trifluoromethylanilino)isoxazolo[4,5-c]quinolin-3-amine], the “Superoxide Anion Inhibition %” value with human neutrophils [1] (setting [6]) is listed as “enhanced”. Besides, the IC50 in the data set on human neutrophils [2] (setting [7]) stood at 6.23 ± 0.52 µM. The inhibition at 10 µM in the data set with human neutrophils [2] (setting [6]) came to 81.5 ± 6.97%.

For the molecule `Nc1noc2c1c(Nc1ccc(C(=O)O)cc1)nc1ccccc12` [Compound 31, 4-[(3-aminoisoxazolo[4,5-c]quinolin-4-yl)amino]benzoic acid], the IC50 in the data set with human neutrophils [1] (setting [5]) and with human neutrophils [2] (setting [7]) was above 10 µM in each case. The values for the inhibition at 10 µM in the data set with human neutrophils [1] (setting [6]) and in the data set on human neutrophils [2] (setting [6]) were 7.44 ± 4.23% and -1.4 ± 3.53%, respectively.

Regarding `Nc1noc2c1c(Nc1ccc(Cl)cc1)nc1ccccc12` [Compound 32, 4-(4-Chloroanilino)isoxazolo[4,5-c]quinolin-3-amine], the IC50 in the data set with human neutrophils [1] (setting [5]) and in the data set with human neutrophils [2] (setting [7]) was above 10 µM throughout. For the same molecule, the inhibition at 10 µM was determined as 38.6 ± 2.3% with human neutrophils [1] (setting [6]) and 3.69 ± 3.42% in the data set with human neutrophils [2] (setting [6]).

For `Cc1ccc(Nc2nc3ccccc3c3onc(N)c23)cc1` [Compound 33, 4-(4-Methylanilino)isoxazolo[4,5-c]quinolin-3-amine], the “Superoxide Anion Inhibition %” value in the data set on human neutrophils [1] (setting [6]) is “enhanced”. The IC50 with human neutrophils [2] (setting [7]) was found to be 7.24 ± 0.72 µM. For the same molecule, the inhibition at 10 µM in the data set on human neutrophils [2] (setting [6]) was 68 ± 5.23%.

Usually inhibition stands for the drop in the measured response relative to a control, in per cent.
